# In PubChem BioAssay (NCI):
#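 Each compound was tested at five concentrations against cells in 96-well plates for 48 hours. TGI: concentration producing complete growth inhibition.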
# Experiments:
# Experiment in all cases: NCI tumour cell line growth inhibition, 48 h
# [1] = test system: BT-549 breast
# [2] = test system: CAKI-1 renal
# [3] = test system: HOP-92 NSCLC
# [4] = test system: MCF7 breast
# [5] = test system: OVCAR-3 ovarian
# [6] = test system: OVCAR-4 ovarian
# [7] = test system: PC-3 prostate
# [8] = test system: RPMI-8226 leukemia
# [9] = test system: SF-539 CNS
# [10] = test system: SK-MEL-28 melanoma
SMILES,TGI [1],TGI [2],TGI [3],TGI [4],TGI [5],TGI [6],TGI [7],TGI [8],TGI [9],TGI [10]
Cc1ccc(C2(N3CCOCC3)OC(C)(C)c3cccc4cccc2c34)cc1 (configuration not stated),33.6 µM,50.1 µM,25.5 µM,33.2 µM,34.4 µM,31.1 µM,34.2 µM,37.9 µM,34.8 µM,–
COc1ccc(C[C@H]2COC(=O)[C@@H]2Cc2ccccc2)cc1OC,–,–,–,> 100 µM,> 100 µM,–,> 100 µM,> 100 µM,–,> 100 µM
COc1ccc(C(=O)/C=C/c2ccc(OCCCOc3ccc(/C=C/C(=O)c4ccc(OC)c(OC)c4)cc3)cc2)cc1OC,–,> 100 µM,–,> 100 µM,–,> 100 µM,> 100 µM,> 100 µM,> 100 µM,> 100 µM
Cn1cnc(/C=C/C#N)c1,> 100 µM,> 100 µM,> 100 µM,> 100 µM,> 100 µM,> 100 µM,> 100 µM,–,> 100 µM,> 100 µM
NNc1nnc(-c2ccccc2)nc1Cc1ccccc1,–,> 100 µM,–,–,> 100 µM,> 100 µM,–,–,64.1 µM,> 100 µM
COC(C[C@H]1CCCC[C@]1(O)/C(=C\CO[Si](C(C)C)(C(C)C)C(C)C)Sc1ccccc1)OC,–,> 100 µM,68.8 µM,> 100 µM,–,> 100 µM,> 100 µM,38.4 µM,–,> 100 µM
C/C=C\C(CC(=O)NCCc1c[nH]c2ccccc12)CC(=O)OC (configuration not stated),> 100 µM,> 100 µM,> 100 µM,> 100 µM,> 100 µM,> 100 µM,> 100 µM,> 100 µM,–,> 100 µM
C/C(=N\NC(=O)c1ccncc1)c1cccc(C(F)(F)F)c1,> 10 µM,> 10 µM,> 10 µM,> 10 µM,–,> 10 µM,–,> 10 µM,> 10 µM,> 10 µM
COc1ccccc1NC(=O)CSC(N)=O,–,> 100 µM,> 100 µM,–,> 100 µM,> 100 µM,–,> 100 µM,70.4 µM,> 100 µM
O=c1[nH]nc(N/N=C\c2ccc(Cl)cc2)c2ccccc12,–,34 µM,34.5 µM,64 µM,30.2 µM,> 100 µM,40.2 µM,> 100 µM,47.6 µM,56.9 µM
CC(=O)OCC1(CNc2nc(N)ncc2C#N)CC(CCc2ccccc2)C1 (configuration not stated),> 100 µM,> 100 µM,49.9 µM,> 100 µM,–,> 100 µM,> 100 µM,–,> 100 µM,> 100 µM
CCCOC1OC(CS(=O)(=O)O)C(OC(C)=O)C(OC(C)=O)C1OC(C)=O (configuration not stated),> 100 µM,> 100 µM,> 100 µM,> 100 µM,> 100 µM,> 100 µM,> 100 µM,> 100 µM,–,> 100 µM
